Test results: US10711000B2 (Fronthera U.S. Pharmaceuticals LLC, priority 2018, dated 2020)
pIC50: −log10 of the molar value. Where two headings read alike, the source gives them in different places.

Biological target: T1, Autotaxin (Homo sapiens, UniProt Q13822)
T1 construct: from tissue; host or cells: pooled human plasma
Test: LPA formation in pooled human plasma (ex vivo autotaxin inhibition)
Format: biochemical
Details: 2 hours incubation
Procedure: Autotaxin is a plasma phosphodiesterase that converts lysophosphatidylcholine (LPC) into lysophosphatidic acid (LPA), therefore LPA formation was used to evaluate the potency of autotaxin inhibitors. The potency of compound was evaluated ex vivo in pooled human plasma.
Various concentrations of compound were incubated with plasma for 2 hours, and the LPA 18:2 and 20:4 concentration was measured by LC/MS/MS. To determine the LPA18:2 or 20:4 concentration in study plasma, a 10× calibration standard of LPA 18:2 or 20:4 were prepared by serial dilution in butyl alcohol: 20000, 10000, 5000, 2000, 1000, 500, 200, 100, 50, 20, and 10 ng/mL. 3 μL of calibration standard solution was added into 27.0 μL of blank plasma in 1.5-mL microcentrifuge tubes to generate 1× calibration standards. The 30.0 μL of standards or study plasma was added into 1.5-mL microcentrifuge tubes. 200 μL of butyl alcohol (containing 25.0 ng/mL LPA17:0 for internal control) was added into each 1.5-mL microcentrifuge tube containing study plasma or calibration standards. After vortexing for 1 minute and centrifuging at 10000 rpm for 10 min, 180 μL of supernatant was transferred into a 96-well plate and the LPA18:2 concentration in the plasma was quantitated using LC/MS/MS together with standards. Briefly, 8 μL of the solutions were injected for LC-MS/MS analysis using an ACQUITY UPLC BEH C18 column (2.1×50 mm, 1.7 μm) with mobile phase A [20 mM NH4OAC in water (0.1% FA)] and phase B [5 mM NH4OAC in water/0.2% FA in ACN=5:95]. Mass spectrometer parameters optimization for LPA18:2 were performed by Deprotonated molecular ion at m/z 433.2 ([M−H]^−) for LPA18:2, 457.2 for LPA20:4 and abundant product ion at m/z 152.8 for both LPA18:2 and LPA20:4 were obtained. Quantitative data were acquired in multiple reaction monitoring (MRM) negative electrospray ionization mode
The inhibition rate of LPA formation was determined by comparing the levels of LPA in treated and non-treated plasma. The data was plotted against the corresponding concentration of compound and the IC50 was calculated through non-linear regression fitting.

[1] = LPA 18:2 by LC/MS/MS, read-out: LPA formation (18:2) (IC50)
[2] = LPA 20:4 by LC/MS/MS, read-out: LPA formation (20:4) (IC50)

pIC50 [1]	pIC50 [2]	SMILES
≥ 7.00	≥ 7.00	CCc1nn2c(C)cc(N3CC4(CN(C(=O)C5CCOCC5)C4)C3)cc2c1N(C)c1nc(-c2ccc(F)cc2)c(C#N)s1 [Example 41, 2-((2-ethyl-7-methyl-5-(6-(tetrahydro-2H-pyran-4-carbonyl)-2,6-diazaspiro[3.3]heptan-2-yl)pyrazolo[1,5-a]pyridin-3-yl)(methyl)amino)-4-(4-fluorophenyl)thiazole-5-carbonitrile]
6.30 to 7.00	6.30 to 7.00	Cc1cc(N2CC3(CN(C(=O)C4CCN(C)C4)C3)C2)cc2c(N(C)c3nc(-c4ccc(F)cc4)c(C#N)s3)c(C3CC3)nn12 (centres unmarked) [Example 85, 2-((2-cyclopropyl-7-methyl-5-(6-(1-methylpyrrolidine-3-carbonyl)-2,6-diazaspiro[3.3]heptan-2-yl)pyrazolo[1,5-a]pyridin-3-yl)(methyl)amino)-4-(4-fluorophenyl)thiazole-5-carbonitrile]
≥ 7.00	≥ 7.00	CCc1nn2c(C)cc(N3CC4(CN(C(=O)C5CCCO5)C4)C3)cc2c1N(C)c1nc(-c2ccc(F)cc2)c(C#N)s1 (centres unmarked) [Example 38, 2-((2-ethyl-7-methyl-5-(6-(tetrahydrofuran-2-carbonyl)-2,6-diazaspiro[3.3]heptan-2-yl)pyrazolo[1,5-a]pyridin-3-yl)(methyl)amino)-4-(4-fluorophenyl)thiazole-5-carbonitrile]
6.30 to 7.00	6.30 to 7.00	CCc1nn2c(C)cc(N3CCC4(CN(C(=O)CO)C4)C3)cc2c1N(C)c1nc(-c2ccc(F)cc2)c(C#N)s1 [Example 52, 2-((2-ethyl-5-(2-(2-hydroxyacetyl)-2,6-diazaspiro[3.4]octan-6-yl)-7-methylpyrazolo[1,5-a]pyridin-3-yl)(methyl)amino)-4-(4-fluorophenyl)thiazole-5-carbonitrile]
≥ 7.00	≥ 7.00	CCc1nn2ccc(N3CC4(CN(C(=O)[C@H]5CCOC5)C4)C3)cc2c1N(C)c1nc(-c2ccc(F)cc2)c(C#N)s1 [Example 10, (S)-2-((2-ethyl-5-(6-(tetrahydrofuran-3-carbonyl)-2,6-diazaspiro[3.3]heptan-2-yl)pyrazolo[1,5-a]pyridin-3-yl)(methyl)amino)-4-(4-fluorophenyl)thiazole-5-carbonitrile]
≥ 7.00	≥ 7.00	CCn1nc2nc(C)c(N3CC4(CN(C(=O)[C@H]5CCOC5)C4)C3)cc2c1N(C)c1nc(-c2ccc(F)cc2)c(C#N)s1 [Compound 121, (S)-2-((2-ethyl-6-methyl-5-(6-(tetrahydrofuran-3-carbonyl)-2,6-diazaspiro[3.3]heptan-2-yl)-2H-pyrazolo[3,4-b]pyridin-3-yl)(methyl)amino)-4-(4-fluorophenyl)thiazole-5-carbonitrile]
≥ 7.00	≥ 7.00	CCc1nn2cc(C)c(N3CC4(CN(C(=O)C(O)CO)C4)C3)cc2c1N(C)c1nc(-c2ccc(F)cc2)c(C#N)s1 (centres unmarked) [Example 99, 2-((5-(6-(2,3-dihydroxypropanoyl)-2,6-diazaspiro[3.3]heptan-2-yl)-2-ethyl-6-methylpyrazolo[1,5-a]pyridin-3-yl)(methyl)amino)-4-(4-fluorophenyl)thiazole-5-carbonitrile]
≥ 7.00	≥ 7.00	CCc1nn2ccc(N3CCN(CC(=O)N(C)C)CC3)cc2c1N(C)c1nc(-c2ccc(F)cc2)c(C#N)s1 [Example 5, 2-(4-(3-((5-cyano-4-(4-fluorophenyl)thiazol-2-yl)(methyl)amino)-2-ethylpyrazolo[1,5-a]pyridin-5-yl)piperazin-1-yl)-N,N-dimethylacetamide]
≥ 7.00	≥ 7.00	[2H]c1cc(N2CCN(CC(=O)N3CC(O)C3)CC2)cc2c(N(C)c3nc(-c4ccc(F)cc4)c(C#N)s3)c(CC)nn12 [Example 19, 2-((2-ethyl-5-(4-(2-(3-hydroxyazetidin-1-yl)-2-oxoethyl)piperazin-1-yl)pyrazolo[1,5-a]pyridin-3-yl-7-d)(methyl)amino)-4-(4-fluorophenyl)thiazole-5-carbonitrile]
≥ 7.00	≥ 7.00	CCc1nn2cc(F)c(N3CCC4(CN(C(=O)N5CC(O)C5)C4)C3)cc2c1N(C)c1nc(-c2ccc(F)cc2)c(C#N)s1 [Example 111, 2-((2-ethyl-6-fluoro-5-(2-(3-hydroxyazetidine-1-carbonyl)-2,6-diazaspiro[3.4]octan-6-yl)pyrazolo[1,5-a]pyridin-3-yl)(methyl)amino)-4-(4-fluorophenyl)thiazole-5-carbonitrile]
≥ 7.00	≥ 7.00	CCc1nn2c(C)cc(N3CC4(CN(C(=O)N5CCOCC5)C4)C3)cc2c1N(C)c1nc(-c2ccc(F)cc2)c(C#N)s1 [Example 42]
≥ 7.00	6.30 to 7.00	CCc1nn2c(C)cc(N3CC4(CCN(C(=O)C5CN(C)C5)C4)C3)cc2c1N(C)c1nc(-c2ccc(F)cc2)c(C#N)s1 [Example 47, 2-((2-ethyl-7-methyl-5-(6-(1-methylazetidine-3-carbonyl)-2,6-diazaspiro[3.4]octan-2-yl)pyrazolo[1,5-a]pyridin-3-yl)(methyl)amino)-4-(4-fluorophenyl)thiazole-5-carbonitrile]
≥ 7.00	≥ 7.00	CCc1nn2c(C)cc(N3CC4(CN(C(=O)c5ccco5)C4)C3)cc2c1N(C)c1nc(-c2ccc(F)cc2)c(C#N)s1 [Example 66, 2-((2-ethyl-5-(6-(furan-2-carbonyl)-2,6-diazaspiro[3.3]heptan-2-yl)-7-methylpyrazolo[1,5-a]pyridin-3-yl)(methyl)amino)-4-(4-fluorophenyl)thiazole-5-carbonitrile]
6.30 to 7.00	6.30 to 7.00	CCc1nn2c(C)cc(N3CC4(CN(C(=O)OC5CCOC5)C4)C3)cc2c1N(C)c1nc(-c2ccc(F)cc2)c(C#N)s1 (centres unmarked) [Example 34, tetrahydrofuran-3-yl 6-(3-((5-cyano-4-(4-fluorophenyl)thiazol-2-yl)(methyl)amino)-2-ethyl-7-methylpyrazolo[1,5-a]pyridin-5-yl)-2,6-diazaspiro[3.3]heptane-2-carboxylate]
6.30 to 7.00	6.30 to 7.00	CCc1nn2c(C)cc(N3CC4(CN(C(=O)[C@H](O)CO)C4)C3)cc2c1N(C)c1nc(-c2ccc(F)cc2)c(C#N)s1 (single isomer, unassigned) [Example 75]
≥ 7.00	≥ 7.00	CCc1nn2c(C)cc(N3CC4(CN(C(=O)C5(O)CCOCC5)C4)C3)cc2c1N(C)c1nc(-c2ccc(F)cc2)c(C#N)s1 [Example 56]
≥ 7.00	6.30 to 7.00	CCc1nn2c(C)cc(N3CC4(CN(C(=O)[C@@H](O)CO)C4)C3)cc2c1N(C)c1nc(-c2ccc(F)cc2)c(C#N)s1 (single isomer, unassigned) [Example 76]
6.30 to 7.00	6.30 to 7.00	CCc1nn2c(C)cc(N3CC4(CN(C(=O)[C@@H](C)O)C4)C3)cc2c1N(C)c1nc(-c2ccc(F)cc2)c(C#N)s1 [Example 63, (R)-2-((2-ethyl-5-(6-(2-hydroxypropanoyl)-2,6-diazaspiro[3.3]heptan-2-yl)-7-methylpyrazolo[1,5-a]pyridin-3-yl)(methyl)amino)-4-(4-fluorophenyl)thiazole-5-carbonitrile]
6.30 to 7.00	6.30 to 7.00	CCc1nn2c(C)cc(N3CC4(CN(C(=O)C5COC5)C4)C3)cc2c1N(C)c1nc(-c2ccc(F)cc2)c(C#N)s1 [Example 31, 2-((2-ethyl-7-methyl-5-(6-(oxetane-3-carbonyl)-2,6-diazaspiro[3.3]heptan-2-yl)pyrazolo[1,5-a]pyridin-3-yl)(methyl)amino)-4-(4-fluorophenyl)thiazole-5-carbonitrile]
